Experimental data published in US9771343B2, “2-alkyl-or-aryl-substituted tanshinone derivatives, and preparation method and application thereof” (Hangzhou Bensheng Pharmaceutical Co., Ltd., priority 2011, dated 2017).
≈ marks a conversion by molar mass, not a printed value.

Legend:
[1] = system: K562/adr (drug-resistant, chronic myeloid leukemia, CML); assay: MTT cell growth inhibition, K562/adr leukemia cells, 72 h; assay type: cell-based; details: Homo sapiens, K562/Adr
Experimental: (§1) The standard sample of tanshinone I (TA) and the 2-alkyl- or 2-aromatic-substituted tanshinone I derivatives of the present invention are sufficiently dissolved in dimethylsulfoxide to produce a stock solution of 10 mg/mL, which is refrigerated at 4° C. and stored in dark, and is diluted with cell culture medium to a desired concentration prior to experimentation.
(§2) Obtaining 6000 well-growing leukemia cells and inoculating them into wells of a 96-well cell culture plate. The culture medium is the RPMI-1640 cell culture medium containing 10% fetal bovine serum. After adding on the second day the 2-alkyl- or 2-aromatic-substituted tanshinone I derivatives of different concentrations and mixing uniformly, placing the plate in a carbon dioxide cell incubator (5% CO2) at 37° C. and incubated for 72 hours. Then the viable cell concentration is determined by MTT method. In this experiment, the cell viability in control group (not treated with any compound) is set as 100%, and the cell viability (%) after treatment by the compounds and the half maximum inhibitory concentration for the leukemia cell at 72 hours (IC50 value of 72 hours, μg/mL) are calculated.

[2] = system: Jurkat (acute lymphoblastic leukemia, ALL); assay: MTT cell growth inhibition, Jurkat leukemia cells, 72 h; assay type: cell-based; details: Homo sapiens, 72 h
Experimental: as §1, §2

[3] = system: Kasumi-1 (acute myeloid leukemia M2 type, AML-M2); assay: MTT cell growth inhibition, Kasumi-1 leukemia cells, 72 h; assay type: cell-based; details: Homo sapiens, Kasumi-1, 72 h
Experimental: as §1, §2

[4] = system: SK-OV-3 (ovarian cancer cell); assay: MTT cell growth inhibition, SK-OV-3 cells, 72 h; assay type: cell-based, human
Experimental: (§3) The standard sample of tanshinone I (TA) and the 2-alkyl- or 2-aromatic-substituted tanshinone I derivatives of the present invention are sufficiently dissolved in dimethylsulfoxide to produce a stock solution of 10 mg/mL, which is refrigerated at 4° C. and stored in dark, and is diluted with a cell culture medium to the desired concentration prior to experimentation.
(§4) Obtaining 6000 well-growing human solid tumor cells and inoculating them into wells of a 96-well cell culture plate. The culture medium is DMEM High Glucose cell culture medium containing 10% fetal bovine serum. The plate is placed in a carbon dioxide cell incubator (5% CO2) at 37° C. and incubated for 24 hours. After adding the 2-alkyl- or 2-aromatic-substituted tanshinone I derivatives of different concentrations and mixing uniformly, the plate is placed in a carbon dioxide cell incubator (5% CO2) at 37° C. and incubated for 72 hours. Then the viable cell concentration is determined by MTT method. In this experiment, the cell viability in control group (not treated with any compound) is set as 100%, and the cell viability (%) after treatment by the compounds and the half maximum inhibitory concentration for the leukemia cell at 72 hours (IC50 value of 72 hours, μg/mL) are calculated.

MG63 (osteosarcoma) = assay: MTT cell growth inhibition, MG63 cells, 72 h; assay type: cell-based, human; details: Homo sapiens, MG-63, 72 h
Experimental: as §3, §4

[5] = system: PANC-1 (pancreatic cancer); assay: MTT cell growth inhibition, PANC-1 cells, 72 h; assay type: cell-based, human; details: Homo sapiens, PANC-1, 72 h
Experimental: as §3, §4

[6] = system: Hela (human cervical cancer cell); assay: MTT cell growth inhibition, Hela cells, 72 h; assay type: cell-based
Experimental: as §3, §4

[7] = system: Hep G2 (human liver cancer cell); assay: MTT cell growth inhibition, Hep G2 cells, 72 h; assay type: cell-based
Experimental: as §3, §4

[8] = system: H9 (acute lymphoblastic leukemia, ALL); assay: MTT cell growth inhibition, H9 leukemia cells, 72 h; assay type: cell-based
Experimental: as §1, §2

[9] = system: MGC 803 (human gastric cancer cell); assay: MTT cell growth inhibition, MGC 803 cells, 72 h; assay type: cell-based
Experimental: as §3, §4

[10] = system: RPMI8226 (multiple myeloma); assay: MTT cell growth inhibition, RPMI8226 multiple myeloma cells, 72 h; assay type: cell-based, human; details: Homo sapiens, RPMI 8226, 72 h
Experimental: as §1, §2

PC-3 (prostate cancer) = assay: MTT cell growth inhibition, PC-3 cells, 72 h; assay type: cell-based, human
Experimental: as §3, §4

[11] = system: Hep-2 (laryngeal carcinoma); assay: MTT cell growth inhibition, Hep-2 cells, 72 h; assay type: cell-based, human; details: Homo sapiens, HEp-2, 72 h
Experimental: as §3, §4

[12] = system: RKO (human colon adenocarcinoma cell); assay: MTT cell growth inhibition, RKO cells, 72 h; assay type: cell-based
Experimental: as §3, §4

[13] = system: NB4 (acute promyelocytic leukemia, AML); assay: MTT cell growth inhibition, NB4 leukemia cells, 72 h; assay type: cell-based
Experimental: as §1, §2

[14] = system: CNE (nasopharyngeal carcinoma cell); assay: MTT cell growth inhibition, CNE cells, 72 h; assay type: cell-based, human; details: Homo sapiens, CNE, 72 h
Experimental: as §3, §4

A549 (human lung cancer) = assay: MTT cell growth inhibition, A549 cells, 72 h; assay type: cell-based; details: Homo sapiens, A549, 72 h
Experimental: as §3, §4

[15] = system: CaES-17 (esophageal cancer cell); assay: MTT cell growth inhibition, CaES-17 cells, 72 h; assay type: cell-based, human; details: Homo sapiens, CaEs17, CaEs-17, 72 h
Experimental: as §3, §4

[16] = system: U87 MG (malignant glioma cell); assay: MTT cell growth inhibition, U87 MG cells, 72 h; assay type: cell-based, human
Experimental: as §3, §4

[17] = system: Becap37 (human breast cancer cell); assay: MTT cell growth inhibition, Becap37 cells, 72 h; assay type: cell-based
Experimental: as §3, §4

With `Cc1c(-c2ccc(C(=O)O)cc2)oc2c1C(=O)C(=O)c1c-2ccc2c(C)cccc12` [BS-TA-302] the IC50 ([1]; read-out: IC50) was 1.08 µg/mL (≈ 2.72 µM), the IC90 ([1]; read-out: IC90) was 3.6 µg/mL (≈ 9.08 µM) and the IC50 ([2]; read-out: IC50) was 0.84 µg/mL (≈ 2.12 µM). For the same molecule, the IC90 ([2]; read-out: IC90) was greater than 16 µg/mL, the IC50 ([3]; read-out: IC50) was 3.85 µg/mL (≈ 9.71 µM) and the IC90 ([3]; read-out: IC90) was 17.5 µg/mL (≈ 44.1 µM). For the same molecule, the IC50 ([4]; Homo sapiens, SK-OV-3, 72 h, read-out: IC50) was 11.1 µg/mL (≈ 28 µM), the IC90 ([4]; Homo sapiens, SK-OV-3, 72 h, read-out: IC90) was greater than 16 µg/mL and the “anti-SK-OV-3 activity (in words)” value ([4]; Table 2) was “superior to that of tanshinone I per se”. For the same molecule, the IC50 (MG63 (osteosarcoma); read-out: IC50) was 1.05 µg/mL (≈ 2.65 µM), the IC90 (MG63 (osteosarcoma); read-out: IC90) was greater than 16 µg/mL and the IC50 ([5]; read-out: IC50) was 5.48 µg/mL (≈ 13.8 µM). It also gave an IC90 ([5]; read-out: IC90) greater than 16 µg/mL, an IC50 ([6]; Homo sapiens, HeLa, 72 h, read-out: IC50) of 0.5 µg/mL (≈ 1.26 µM) and an IC90 ([6]; Homo sapiens, HeLa, 72 h, read-out: IC90) of 16 µg/mL (≈ 40.4 µM). For the same molecule, the “anti-Hela activity (in words)” value ([6]; Table 2) was “superior to that of tanshinone I per se”, the IC50 ([7]; Homo sapiens, HepG2, Hep G2, 72 h, read-out: IC50) was 1.94 µg/mL (≈ 4.89 µM) and the IC90 ([7]; Homo sapiens, HepG2, Hep G2, 72 h, read-out: IC90) was greater than 16 µg/mL. For the same molecule, the “anti-Hep G2 activity (in words)” value ([7]; Table 2) was “superior to that of tanshinone I per se”, the IC50 ([8]; H9, 72 h, read-out: IC50) was 0.7 µg/mL (≈ 1.77 µM) and the IC90 ([8]; H9, 72 h, read-out: IC90) was 1.98 µg/mL (≈ 4.99 µM). For the same molecule, the “improvement of anti-H9 activity as compared with tanshinone I per se” value ([8]; H9, vs tanshinone I) was roughly 5 fold, the IC50 ([9]; Homo sapiens, MGC-803, 72 h, read-out: IC50) was 0.38 µg/mL (≈ 0.959 µM) and the IC90 ([9]; Homo sapiens, MGC-803, 72 h, read-out: IC90) was 3.3 µg/mL (≈ 8.32 µM). The “anti-MGC 803 activity (in words)” value ([9]; Table 2) was “significantly improves”, the IC50 ([10]; read-out: IC50) was 1 µg/mL (≈ 2.52 µM) and the IC90 ([10]; read-out: IC90) was 16.6 µg/mL (≈ 41.8 µM). For the same molecule, the IC50 (PC-3 (prostate cancer); Homo sapiens, PC-3, 72 h, read-out: IC50) was 6.49 µg/mL (≈ 16.4 µM), the IC90 (PC-3 (prostate cancer); Homo sapiens, PC-3, 72 h, read-out: IC90) was greater than 16 µg/mL and the “anti-PC-3 activity (in words)” value (PC-3 (prostate cancer); Table 2) was “significantly improves”. It also gave an IC50 ([11]; read-out: IC50) of 8 µg/mL (≈ 20.2 µM), an IC90 ([11]; read-out: IC90) greater than 16 µg/mL and an IC50 ([12]; Homo sapiens, RKO, 72 h, read-out: IC50) of 1.53 µg/mL (≈ 3.86 µM). The IC90 ([12]; Homo sapiens, RKO, 72 h, read-out: IC90) was greater than 16 µg/mL, the “anti-RKO activity (in words)” value ([12]; Table 2) was “superior to that of tanshinone I per se” and the IC50 ([13]; NB4, 72 h, read-out: IC50) was 0.2 µg/mL (≈ 0.505 µM). The IC90 ([13]; NB4, 72 h, read-out: IC90) was 1 µg/mL (≈ 2.52 µM), the “improvement of anti-NB4 activity as compared with tanshinone I per se” value ([13]; NB4, vs tanshinone I) was roughly 5 fold and the IC50 ([14]; read-out: IC50) was 15 µg/mL (≈ 37.8 µM). For the same molecule, the IC90 ([14]; read-out: IC90) was greater than 16 µg/mL, the IC50 (A549 (human lung cancer); read-out: IC50) was 16.6 µg/mL (≈ 41.9 µM) and the IC90 (A549 (human lung cancer); read-out: IC90) was greater than 16 µg/mL. For the same molecule, the IC50 ([15]; read-out: IC50) was 6.83 µg/mL (≈ 17.2 µM), the IC90 ([15]; read-out: IC90) was greater than 16 µg/mL and the IC50 ([16]; Homo sapiens, U-87 MG, U87-MG, 72 h, read-out: IC50) was 0.5 µg/mL (≈ 1.26 µM). For the same molecule, the IC90 ([16]; Homo sapiens, U-87 MG, U87-MG, 72 h, read-out: IC90) was greater than 16 µg/mL, the “anti-U87 MG activity (in words)” value ([16]; Table 2) was “superior to that of tanshinone I per se” and the IC50 ([17]; Homo sapiens, Becap-37, 72 h, read-out: IC50) was 1.28 µg/mL (≈ 3.23 µM). For the same molecule, the IC90 ([17]; Homo sapiens, Becap-37, 72 h, read-out: IC90) was greater than 16 µg/mL and the “anti-Becap37 activity (in words)” value ([17]; Table 2) was “superior to that of tanshinone I per se”.
